The values that follow come from PMC3836618, “The Flux of Phenolic Compounds through Silicone Membranes” (Pharmaceutics, 2013).

Details of series [1]: method as in PMID 22602, PMID 16982163. Conditions: octanol:water partition coefficient; cited from earlier work.
Details of series [2]: method as in PMID 22602, PMID 16982163. The settings on record: solubility in water, log value; cited from earlier work.
A short description of series [3]: Maximum flux through silicone membrane from water (diffusion cell, saturated donor suspension, 32 °C). The protocol:
The measurement of maximum flux through silicone was performed according to a literature procedure at 32 °C, except that the silicone membrane was in contact with the receptor for only 24 h to condition them. The receptor was a 7.1 pH phosphate buffer.
After the membranes were conditioned, the receptor phases were changed and the donor suspensions (first application, 1 mL) were applied; n = 3. The donor cells were sealed by Parafilm. Samples were taken from the receptor every 2–3 h after application. Following sample collection, the receptor phases were changed to ensure sink conditions, and the donor suspensions were either changed or had more solid/oil added to the existing suspension, depending upon the visible extent of depletion. After 4–5 sampling intervals, the donor suspensions were removed with methanol and the receptors were changed. The membranes were leached with methanol in the donor phase for 48–72 h with samples taken and receptor phases changed every 12–24 h to remove any residual phenol in the membrane.
(§1) The flux values of the first and second application were determined by UV absorption.

Details of series [4]: method as in PMID 22602, PMID 16982163. Conditions: solubility in octanol, log value; cited from earlier work.
Details of series [5]: method as in PMID 22602, PMID 16982163. Conditions: cited from earlier work; for Exp. log JMHAQ: experimental maximum flux through human stratum corneum from water, Table 2; for Log JMHAQ: maximum flux through human stratum corneum from water, log value, Table 1.
Details of series [6]: method as in PMID 18588972. Conditions: donor suspension in propylene glycol; cited from earlier work.
Series [7] can be described thus: Flux of standard solute theophylline through silicone from propylene glycol (membrane integrity check, second application). The settings on record: each membrane after methanol leaching. Format: in vitro ADME. As for the experimental part:
as §1

Setting [8] is: experimental maximum flux through silicone from water, Table 2.
Where [9] appears, read: maximum flux through silicone from water, log value, 32 °C, receptor pH 7.1 phosphate buffer, n = 3, Table 1.

As for `Cc1cccc(O)c1` [compound 7, 3-methylphenol], in series [1], the “Log KOCT:AQ” value is recorded as 1.96. Further, the “Log SAQ” value in series [2] was 2.36 μmole cm^−3. The “Exp. log JMPAQ” value in series [3] (setting [8]) is 1.61 μmole cm^−2 h^−1. Further, in series [3] (setting [9]), the “Log JMPAQ” value is on record as 1.61 μmole cm^−2 h^−1. The “Log SOCT” value in series [4] is 4.32 μmole cm^−3. Besides, in series [5], the “Exp. log JMHAQ” value is on record as 0.54 μmole cm^−2 h^−1 and the “Log JMHAQ” value is reported as 0.54 μmole cm^−2 h^−1.

In the case of `Cn1c(=O)c2[nH]cnc2n(C)c1=O` [theophylline], in series [6], the “log JMPPG (log flux of theophylline through silicone from PG), literature value” is on record as −2.68 ± 0.12 log units. In series [7], the “log JMPPG (log flux of theophylline through silicone from PG)” value was “within the standard deviation of the literature value”.

Consider `Cc1ccc(O)cc1` [compound 4, 4-methyl], for which the “Log KOCT:AQ” value in series [1] is on record as 1.95. In addition, the “Log SAQ” value in series [2] is listed as 2.29 μmole cm^−3. Also, in series [3] (setting [8]), the “Exp. log JMPAQ” value was 1.62 μmole cm^−2 h^−1. In addition, the “Log JMPAQ” value in series [3] (setting [9]) is given as 1.62 μmole cm^−2 h^−1. Also, the “Log SOCT” value in series [4] is recorded as 4.24 μmole cm^−3. Also, in series [5], the “Exp. log JMHAQ” value is recorded as 0.53 μmole cm^−2 h^−1 and the “Log JMHAQ” value is 0.53 μmole cm^−2 h^−1.

For `Oc1ccc(Cl)cc1Cl` [compound 5, 2,4-dichloro], the “Log KOCT:AQ” value in series [1] was 3.08. The “Log SAQ” value in series [2] is 1.49 μmole cm^−3. Moreover, the “Exp. log JMPAQ” value in series [3] (not told) amounted to 1.16 μmole cm^−2 h^−1. Moreover, in series [3] (not told, pH 7.1), the “Log JMPAQ” value turned out to be 1.16 μmole cm^−2 h^−1. For the same molecule, the “Log SOCT” value in series [4] is 4.57 μmole cm^−3. Besides, in series [5], the “Exp. log JMHAQ” value is given as 0.27 μmole cm^−2 h^−1 and the “Log JMHAQ” value is reported as 0.27 μmole cm^−2 h^−1.

Turning to `Cc1cc(O)cc(C)c1Cl` [compound 2, 4-chloro-3,5-dimethylphenol], in series [1], the “Log KOCT:AQ” value is on record as 3.39. In addition, the “Log SAQ” value in series [2] is recorded as 0.28 μmole cm^−3. In series [3] (setting [8]), the “Exp. log JMPAQ” value is reported as −0.027 μmole cm^−2 h^−1. The “Log JMPAQ” value in series [3] (setting [9]) was −0.027 μmole cm^−2 h^−1. Besides, the “Log SOCT” value in series [4] is 3.67 μmole cm^−3. In addition, in series [5], the “Exp. log JMHAQ” value is −0.95 μmole cm^−2 h^−1 and the “Log JMHAQ” value is given as −0.95 μmole cm^−2 h^−1.

Take `Cc1cc(O)ccc1Cl` [compound 1, 4-chloro-3-methyl]: the “Log KOCT:AQ” value in series [1] was 3.10. Besides, the “Log SAQ” value in series [2] is 1.55 μmole cm^−3. In addition, the “Exp. log JMPAQ” value in series [3] (not told) turned out to be 1.01 μmole cm^−2 h^−1. The “Log JMPAQ” value in series [3] (not told, pH 7.1) is on record as 1.01 μmole cm^−2 h^−1. In addition, in series [4], the “Log SOCT” value is listed as 4.65 μmole cm^−3. Moreover, in series [5], the “Exp. log JMHAQ” value was 0.29 μmole cm^−2 h^−1 and the “Log JMHAQ” value is reported as 0.29 μmole cm^−2 h^−1.
